We go through 13 compounds from ChEMBL document CHEMBL1130196, “Selective, orally active 5-HT1D receptor agonists as potential antimigraine agents” (J Med Chem, 1997).

Where only a bound is given, the exact number is not on record here.

In experiment [1] the target is T1, 5-hydroxytryptamine receptor 1B (Homo sapiens, UniProt P28222). The experiment in a line: Displacement of [3H]5-HT from human 5-hydroxytryptamine 1B receptor expressed in CHO cells. The class given is cell-based.
The target in experiment [2] is T2, 5-hydroxytryptamine receptor 1D (Homo sapiens, UniProt P28221). The experiment in a line: Maximum stimulation of [35S]GTP-gamma-S, binding to 5-hydroxytryptamine 1D receptor relative to 5-HT. The class given is functional.
Experiment [3] concerns the target T2, 5-hydroxytryptamine receptor 1D. The experiment in a line: Displacement of [3H]5-HT from human 5-hydroxytryptamine 1D receptor expressed in CHO cells. In kind it is cell-based. Background: Loss of bound radioactivity is the signal in a displacement assay; it reports binding, not function.
Experiment [4] has the same target. The experiment in a line: Stimulation of [35S]GTP-gamma-S, binding in CHO cells expressing 5-hydroxytryptamine 1D receptor. In kind it is functional, cell-based. Background: GTPγS resists hydrolysis and so accumulates on activated G proteins.
Experiment [5] concerns the target T3, 5-hydroxytryptamine receptor 1A (Mus musculus, UniProt Q64264).
T3 sequence (Q64264 whole entry): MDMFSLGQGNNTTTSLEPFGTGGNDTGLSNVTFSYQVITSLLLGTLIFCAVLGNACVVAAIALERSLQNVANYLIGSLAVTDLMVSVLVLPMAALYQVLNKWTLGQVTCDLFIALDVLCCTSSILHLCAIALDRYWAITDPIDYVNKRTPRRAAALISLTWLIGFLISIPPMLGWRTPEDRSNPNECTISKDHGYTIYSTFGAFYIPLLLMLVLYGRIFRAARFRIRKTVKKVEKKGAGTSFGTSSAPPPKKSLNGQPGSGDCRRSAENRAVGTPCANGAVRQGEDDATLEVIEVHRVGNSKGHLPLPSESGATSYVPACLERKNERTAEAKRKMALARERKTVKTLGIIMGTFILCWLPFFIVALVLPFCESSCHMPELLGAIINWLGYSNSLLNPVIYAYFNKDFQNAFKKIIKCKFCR
In words: Compound was evaluated for the affinity at 5-hydroxytryptamine 1A receptor.

Experiment [6] concerns the target T1, 5-hydroxytryptamine receptor 1B. The experiment in a line: Compound was evaluated for the affinity at 5-hydroxytryptamine 1B receptor.
In experiment [7] the target is T2, 5-hydroxytryptamine receptor 1D. In words: Compound was evaluated for the stimulation of [35S]GTP-gamma-S, binding in CHO cells expressing the 5-hydroxytryptamine 1D receptor. The class given is functional, cell-based.
Experiment [8] addresses 5-hydroxytryptamine receptor 1E (Homo sapiens, UniProt P28566). In words: Compound was evaluated for the affinity at 5-hydroxytryptamine 1E receptor.
Experiment [9] concerns the target T4, 5-hydroxytryptamine receptor 1F (Homo sapiens, UniProt P30939).
T4 sequence (P30939 whole entry): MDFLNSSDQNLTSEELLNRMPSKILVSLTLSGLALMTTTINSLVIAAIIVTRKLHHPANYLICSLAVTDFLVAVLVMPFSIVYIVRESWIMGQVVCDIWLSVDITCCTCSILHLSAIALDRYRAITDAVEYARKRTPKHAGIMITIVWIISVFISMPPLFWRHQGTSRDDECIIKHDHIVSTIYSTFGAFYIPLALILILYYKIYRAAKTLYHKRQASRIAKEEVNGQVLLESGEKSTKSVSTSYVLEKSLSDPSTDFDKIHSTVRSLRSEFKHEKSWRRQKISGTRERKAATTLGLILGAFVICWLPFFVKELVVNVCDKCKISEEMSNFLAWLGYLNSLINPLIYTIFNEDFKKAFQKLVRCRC
In words: Compound was evaluated for the affinity at 5-hydroxytryptamine 1F receptor.

The target of experiment [10] is T2, 5-hydroxytryptamine receptor 1D. In words: Compound was evaluated for the affinity at 5-hydroxytryptamine 1D receptor.
In experiment [11] the target is 5-hydroxytryptamine receptor 2A (Homo sapiens, UniProt P28223). The experiment in a line: Compound was evaluated for the affinity at 5-hydroxytryptamine 2A receptor.
For experiment [12], the target named is T5, 5-hydroxytryptamine receptor 3A (Homo sapiens, UniProt P46098).
T5 sequence (P46098 whole entry): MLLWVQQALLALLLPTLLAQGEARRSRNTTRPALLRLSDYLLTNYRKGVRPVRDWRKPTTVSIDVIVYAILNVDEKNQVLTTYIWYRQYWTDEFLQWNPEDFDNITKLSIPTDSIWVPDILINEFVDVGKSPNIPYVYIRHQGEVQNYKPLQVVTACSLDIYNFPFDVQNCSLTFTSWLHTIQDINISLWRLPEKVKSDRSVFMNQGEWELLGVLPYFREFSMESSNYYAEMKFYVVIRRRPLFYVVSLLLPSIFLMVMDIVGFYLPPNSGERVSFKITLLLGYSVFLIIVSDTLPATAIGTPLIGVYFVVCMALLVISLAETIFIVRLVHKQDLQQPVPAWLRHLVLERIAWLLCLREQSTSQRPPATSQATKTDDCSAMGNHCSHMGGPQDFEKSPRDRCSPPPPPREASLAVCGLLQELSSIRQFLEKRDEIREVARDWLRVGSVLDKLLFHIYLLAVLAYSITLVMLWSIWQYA
In words: Compound was evaluated for the affinity at 5-hydroxytryptamine 3 receptor.

The target of experiment [13] is T6, 5-hydroxytryptamine receptor 2C (Homo sapiens, UniProt P28335).
T6 sequence (P28335 whole entry): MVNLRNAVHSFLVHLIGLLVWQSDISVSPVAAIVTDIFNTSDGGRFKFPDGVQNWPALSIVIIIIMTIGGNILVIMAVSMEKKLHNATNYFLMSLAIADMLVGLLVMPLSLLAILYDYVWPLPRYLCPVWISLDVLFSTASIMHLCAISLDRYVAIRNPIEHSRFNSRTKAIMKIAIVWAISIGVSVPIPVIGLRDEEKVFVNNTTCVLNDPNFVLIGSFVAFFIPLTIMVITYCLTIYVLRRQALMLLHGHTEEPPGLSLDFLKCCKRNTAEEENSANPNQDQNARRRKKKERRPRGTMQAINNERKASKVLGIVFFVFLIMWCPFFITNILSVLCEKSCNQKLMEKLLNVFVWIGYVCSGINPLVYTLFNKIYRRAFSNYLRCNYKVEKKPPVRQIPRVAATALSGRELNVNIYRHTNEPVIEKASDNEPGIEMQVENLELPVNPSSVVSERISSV
The experiment in a line: Compound was evaluated for the affinity at 5-hydroxytryptamine 2C receptor.

T2 sequence (P28221 whole entry): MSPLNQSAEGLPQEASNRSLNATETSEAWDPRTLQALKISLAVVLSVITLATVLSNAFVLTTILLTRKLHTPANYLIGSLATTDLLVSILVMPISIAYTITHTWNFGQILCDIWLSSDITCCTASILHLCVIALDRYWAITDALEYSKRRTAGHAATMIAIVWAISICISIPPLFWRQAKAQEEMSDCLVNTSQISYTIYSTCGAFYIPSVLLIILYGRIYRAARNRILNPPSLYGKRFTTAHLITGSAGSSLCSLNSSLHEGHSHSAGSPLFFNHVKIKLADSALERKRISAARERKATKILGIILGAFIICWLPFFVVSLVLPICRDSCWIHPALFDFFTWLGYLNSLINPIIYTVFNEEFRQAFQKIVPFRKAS
T1 sequence (P28222 whole entry): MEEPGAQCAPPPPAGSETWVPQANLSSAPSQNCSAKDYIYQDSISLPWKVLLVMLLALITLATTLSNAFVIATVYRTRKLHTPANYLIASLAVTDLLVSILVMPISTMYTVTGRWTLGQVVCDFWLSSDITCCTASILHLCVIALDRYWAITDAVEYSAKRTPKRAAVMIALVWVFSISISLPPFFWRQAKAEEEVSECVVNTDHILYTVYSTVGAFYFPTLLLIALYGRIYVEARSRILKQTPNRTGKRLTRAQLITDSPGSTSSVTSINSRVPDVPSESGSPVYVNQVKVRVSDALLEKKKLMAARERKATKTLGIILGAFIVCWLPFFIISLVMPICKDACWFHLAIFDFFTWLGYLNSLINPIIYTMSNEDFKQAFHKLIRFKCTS
5-hydroxytryptamine receptor 1E, sequence (P28566 whole entry): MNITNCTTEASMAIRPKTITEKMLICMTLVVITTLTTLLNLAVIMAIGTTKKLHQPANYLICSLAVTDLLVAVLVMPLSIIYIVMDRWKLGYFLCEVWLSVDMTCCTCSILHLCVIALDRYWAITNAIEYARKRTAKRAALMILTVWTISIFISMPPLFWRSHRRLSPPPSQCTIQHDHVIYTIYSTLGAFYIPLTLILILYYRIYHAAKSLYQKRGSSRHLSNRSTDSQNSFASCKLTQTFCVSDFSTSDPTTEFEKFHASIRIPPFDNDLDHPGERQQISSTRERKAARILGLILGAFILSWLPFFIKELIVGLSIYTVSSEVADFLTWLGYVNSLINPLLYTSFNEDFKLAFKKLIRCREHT
5-hydroxytryptamine receptor 2A, sequence (P28223 whole entry): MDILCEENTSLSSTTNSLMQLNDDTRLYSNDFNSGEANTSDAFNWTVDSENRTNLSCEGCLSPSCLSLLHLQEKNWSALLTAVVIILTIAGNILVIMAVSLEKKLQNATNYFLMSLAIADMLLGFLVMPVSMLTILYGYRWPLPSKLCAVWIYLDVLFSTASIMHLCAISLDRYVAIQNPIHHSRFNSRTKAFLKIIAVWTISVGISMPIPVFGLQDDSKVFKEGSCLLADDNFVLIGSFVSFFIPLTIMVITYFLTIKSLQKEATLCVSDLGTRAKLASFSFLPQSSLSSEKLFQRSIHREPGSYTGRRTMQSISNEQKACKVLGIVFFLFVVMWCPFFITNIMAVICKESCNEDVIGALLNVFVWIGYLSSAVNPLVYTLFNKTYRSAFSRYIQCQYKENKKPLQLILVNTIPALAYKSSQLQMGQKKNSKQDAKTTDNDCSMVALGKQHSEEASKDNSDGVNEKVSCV

In general, IC50 refers to the concentration needed to halve the response being measured. A word on the EC50: it is the concentration needed to bring the measured effect to its halfway point. With `Fc1ccc(CCN2CCN(CCCc3c[nH]c4ccc(-n5cnnc5)cc34)CC2)cc1F`, the 50% inhibitory concentration (IC50) in [1] was 98 nM; in [3] it was 1 nM. Also, in [2], the Efficacy is 86%. This compound also came in with an EC50 in [4] of 1.9 nM.
In turn, `c1cc2[nH]cc(CCN3CCCC3)c2cc1-n1cnnc1` came in with an Efficacy in [2] of 120%.
Take `Fc1cccc(CCN2CCN(CCCc3c[nH]c4ccc(-n5cnnc5)cc34)CC2)c1`: the IC50 in experiment [5] is 55 nM; in [1] it was 75 nM; in [6], 75 nM; in experiment [8] it was greater than 10000 nM; in [9] it was 3800 nM; in experiment [3] it was 0.6 nM. Moreover, the IC50 in experiment [10] is 0.6 nM; in [11], 370 nM; in experiment [12], greater than 10000 nM; in [13], 9000 nM. Besides, in experiment [7], the EC50 was found to be 1.2 nM.
For the compound `Fc1cc(F)cc(CCN2CCN(CCCc3c[nH]c4ccc(-n5cnnc5)cc34)CC2)c1`, the figures for the IC50 in experiment [1] and in experiment [3] were 47 nM and 0.7 nM, respectively. Further, the Efficacy in experiment [2] turned out to be 86%. In experiment [4], this compound returned a concentration giving a half-maximal response (EC50) of 0.6 nM.
As to `CNS(=O)(=O)Cc1ccc2[nH]cc(CCN(C)C)c2c1`, the 50% inhibitory concentration (IC50) came out at 450 nM in experiment [5] and 2400 nM in [8].
Take `Fc1ccc(CCN2CCN(CCCc3c[nH]c4ccc(-n5cnnc5)cc34)CC2)cc1`: the half-maximal inhibitory concentration (IC50) turned out to be 120 nM in experiment [1] and 0.8 nM in experiment [3]. Moreover, the Efficacy in experiment [2] was found to be 81%. For the same compound, the EC50 in [4] amounted to 1.5 nM.
For `CN1CCN(CCc2c[nH]c3ccc(-n4cnnc4)cc23)CC1` the same measures were 310 nM, 140 nM, 63% and 80 nM.
Consider `CC(=O)Nc1ccc(CCN2CCN(CCCc3c[nH]c4ccc(-n5cnnc5)cc34)CC2)cc1`, for which the IC50 in experiment [1] came to 251 nM; in [3], 1.3 nM. The same compound displayed an Efficacy in [2] of 85%. In addition, in [4], the half-maximal effective concentration (EC50) came to 1.9 nM.
For `CC(=O)Nc1cccc(CCN2CCN(CCCc3c[nH]c4ccc(-n5cnnc5)cc34)CC2)c1` the same measures were 170 nM, 1.8 nM, 96% and 1.6 nM.
Regarding `Fc1ccccc1CCN1CCN(CCCc2c[nH]c3ccc(-n4cnnc4)cc23)CC1`, the IC50 amounted to 100 nM in [1] and 0.6 nM in experiment [3]. Also, the Efficacy in experiment [2] stood at 80%. It took 1.5 nM to reach a half-maximal effect in experiment [4] (EC50).
`c1ccc(CN2CCN(CCCc3c[nH]c4ccc(-n5cnnc5)cc34)CC2)cc1`: the IC50 in [1] stood at 8.1 nM; in [3], 0.2 nM. Also, the Efficacy in [2] amounted to 56%. The same compound gave a concentration giving a half-maximal response (EC50) in experiment [4] of 0.1 nM.
For `CN1CCN(CCCc2c[nH]c3ccc(-n4cnnc4)cc23)CC1`, in that order: 430 nM, 35 nM, 104% and 53 nM.
On to `c1ccc(CCN2CCN(CCCc3c[nH]c4ccc(-n5cnnc5)cc34)CC2)cc1`, for which the 50% inhibitory concentration (IC50) in experiment [1] was 170 nM; in [3] it was 1.4 nM. The compound also returned an Efficacy in experiment [2] of 65%. Moreover, a half-maximal effect in [4] (EC50) was put at 0.9 nM.
